1 compound from article PMC12833861, “Organoplatinum(II) Type II Immunogenic Cell Death Inducers Target Protein Tyrosine Phosphatase 1B to Drive Immunogenicity” (Journal of the American Chemical Society, 2025) can be followed below.

Broadly, the IC50 is the concentration that inhibits the measured activity by half.

The experiment concerns the target T1, PTP1B (Homo sapiens, UniProt P18031).
T1 construct: gene PTPN1; recombinant PTP1B protein
T1 sequence (P18031 1-435): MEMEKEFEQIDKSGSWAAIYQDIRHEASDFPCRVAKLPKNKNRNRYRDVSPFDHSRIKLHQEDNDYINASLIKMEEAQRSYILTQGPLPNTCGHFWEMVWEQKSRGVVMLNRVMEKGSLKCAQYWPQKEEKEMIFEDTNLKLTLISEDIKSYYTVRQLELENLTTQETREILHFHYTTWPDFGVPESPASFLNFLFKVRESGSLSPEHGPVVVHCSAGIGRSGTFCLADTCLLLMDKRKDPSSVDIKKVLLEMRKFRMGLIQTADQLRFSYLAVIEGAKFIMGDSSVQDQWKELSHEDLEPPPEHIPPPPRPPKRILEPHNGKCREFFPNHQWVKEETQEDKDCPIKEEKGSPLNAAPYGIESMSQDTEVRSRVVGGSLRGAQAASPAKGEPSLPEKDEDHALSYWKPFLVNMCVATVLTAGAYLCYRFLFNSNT
The experiment is described as follows: p-nitrophenyl phosphate phosphatase assay with recombinant PTP1B; supported by CETSA in HCT116 lysates (ΔTm -4.[…] °C). It counts as biochemical.

Take `CCCCCC[n+]1ccn2[c]1[Pt-2]1([c]3ccccc3-c3cccc[n+]31)[c]1n(cc[n+]1CCCCCC)CCC2` [Pt-ER, PlatinER]: the half-inhibitory concentration (IC50) worked out at 20.6 ± 1.8 µM.
